Data: patent publication US20210236664A1, “ALPHA PARTICLE FORMULATIONS FOR TREATMENT OF SOLID TUMORS” (The Johns Hopkins University, priority 2018, published 2021)

Assays:
[1] = system: castration resistant prostate cancer; conditions: castration resistant prostate cancer patients; cited from earlier work
Hep G2 tumor = assay: Tumor retention after intra-tumoral injection in hepatocellular carcinoma mouse model; type: in vivo, mice; conditions: n=3
Protocol: ^111In-DOTA-tetradecylamine(TDA) was synthesized with a radiolabeling yield >95%. The retention of ^111In-DOTA-TDA within a hepatocellular carcinoma mouse model was evaluated; Hep G2 tumor-bearing SCID mice (24 hours, n=3) and NCG mice (48 hours, n=3) following intra-tumoral injections of ^111In-DOTA-TDA alone or as a Lipiodol emulsion (FIG. 6).

[2] = Octanol partition coefficient
Text: Partition coefficients will be as previously described with some minor modifications. Decristoforo, C., et al., 2008. Octanol and saline (pH=7.4) will be used to assess the […] of the proposed compounds. Briefly, the radiolabeled ^111In- and ^225Ac-labeled DOTA(GA)-alkyl chelates will be vortexed with octanol and saline then centrifuged to separate layers. Aliquots (3) from each layer will be removed and counted. The […] will be determined using the following equations:
Poct/saline=Log([activity]octanol/[activity]saline).
A greater than 95% purity was obtained following purification with a Seppak.

bladder cancer = conditions: survive >300 d following treatment; cited from earlier work

Compound: [Cl][223Ra][Cl] [XOFIGO®, Radium-223 Dichloride]
- increased survival benefit [1]: 2.8 month

Compound: ^111In-DOTA-tetradecylamine [^111In-DOTA-TDA]
- uptake within the tumor (Hep G2 tumor; 24 hours, Hep G2 tumor-bearing SCID mice): 103±65.0 % ID/g
- uptake within the tumor (Hep G2 tumor; 48 hours, Hep G2 tumor-bearing NCG mice): 20.0±15.9 % ID/g
- Log Poct [2]: 1.57±0.005

Compound: CO[C@@]12[C@H](COC(N)=O)C3=C(C(=O)C(C)=C(N)C3=O)N1C[C@@H]1N[C@@H]12 [mitomycin C]
- survival of mice (bladder cancer): 40%
